Reference: paper PMC12022973, “Proteomimetic Strategy for the Modulation of Intrinsically Disordered Protein MYC” (Journal of the American Chemical Society, 2025)
Starred links: 1 amine or outer side, 2 acyl side, 3 side chain; linkers in the order of their positions; H or OH if unused. Positions of bridges follow the written chain, without caps; N, C: chain ends. Residues, ends and D or L forms follow the SMILES beside them. Chains are numbered I, II in the order given. X1 = c1cc(C[*:1])ccc1COCc1ccc(C[*:2])cc1

Assay: Serum stability assay in 25% FBS
Type: in vitro ADME
Settings: 25% fetal bovine serum in RPMI-1640, 37 °C, RP-HPLC C18 at 280 nm, L-tryptophan internal standard, triplicate, read-out: initial peptide remaining intact in serum
Protocol: Encouraged by the in vitro results, we evaluated the potential of CHD^Max-1 to form a complex with MYC in cellulo. We first assessed the ability of CHDs to resist proteolytic degradation in fetal bovine serum (FBS). We monitored the rate of peptide degradation under the treatment of 25% FBS over 24 h by RP-HPLC, with tryptophan as an internal standard. […] After validating the serum stability of CHD^Max-1, we tested its potential to enter live cells. We chose T24 cells, a bladder cancer cell line, for these studies because these cells express a high level of MYC.[39] We assessed the ability of fluorescein-labeled FITC–CHD^Max-1 to enter T24 cells using confocal microscopy and observed overlapped fluorescein and Hoechst nuclear stain signals, showing internalization of FITC–CHD^Max-1 (Figure 4C).
CD experiments were conducted on an Jasco J-1500 Circular Dichroism spectrometer equipped with a temperature controller using 1 mm length cells and a scan speed of 4.0 nm/min at 298 K. The spectra were averaged over 5 scans with baseline subtraction. […] The concentrations of each peptide were determined by the UV absorption at 280 nm.
Proteolytic stability of CHDMax-1 was assessed in 25% serum by using fetal bovine serum (FBS, Gibco) in Roswell Park Memorial Institute (RPMI)-1640 medium at 37 °C. […] Time points of 0 h, 6 h, and 24 h were analyzed in triplicate. […]

CC[C@H](C)[C@H](NC(=O)[C@H](CCCCN)NC(=O)[C@H](CCC(=O)O)NC(=O)[C@H](CCCNC(=N)N)NC(=O)[C@H](CC(C)C)NC(C)=O)C(=O)N[C@@H](C)C(=O)N[C@H](C(=O)N[C@@H](CC(C)C)C(=O)N[C@@H](CCC(N)=O)C(=O)N[C@@H](Cc1c[nH]c2ccccc12)C(=O)N[C@@H](CSCc1ccc(COCc2ccc(CSC[C@H](NC(=O)[C@H](CC(C)C)NC(=O)[C@H](CCC(=O)O)NC(=O)[C@H](CCC(=O)O)NC(=O)[C@@H](NC(=O)[C@H](CCC(=O)O)NC(=O)[C@H](Cc3c[nH]c4ccccc34)NC(=O)[C@H](CCC(N)=O)NC(=O)[C@H](Cc3c[nH]cn3)NC(=O)[C@@H](NC(=O)[C@H](CCC(=O)O)NC(=O)[C@H](CC(N)=O)NC(=O)[C@H](CCCCN)NC(=O)[C@H](CCCNC(=N)N)NC(=O)[C@H](CCCNC(=N)N)NC(=O)[C@H](CC(C)C)NC(C)=O)[C@@H](C)O)[C@@H](C)CC)C(N)=O)cc2)cc1)C(=O)N[C@H](C(=O)N[C@@H](CCC(=O)O)C(=O)N[C@@H](CCC(=O)O)C(=O)N[C@@H](CC(C)C)C(=O)N[C@@H](CCCNC(=N)N)C(=O)N[C@@H](CCCCN)C(N)=O)[C@@H](C)CC)[C@@H](C)O [CHD^Max-1] (I: Ac-LREKIATLQWCIEELRK-NH2 / II: Ac-LRRKNETHQWEIEELC-NH2; linker I:11-II:16 via X1)
remaining at 24 h: ~80%
